Where two headings read alike, the source gives them in different places.

As usually defined, the Dmax is the largest share of the target that was removed. Broadly, the DC50 is the midpoint of the concentration-degradation curve.

One experiment has as its target SMARCA4 (Homo sapiens, UniProt P51532). In words: HiBiT assay for protein degradation, Hela SMARCA4-HiBiT cells (A series). Type of experiment: cell-based. More on the design: fuse HiBiT to the carboxy terminus of SMARCA2 (Promega CS302365) or SMARCA4 (Promega CS3023225); host or cells: HeLa (CRISPR/Cas9 HiBiT knock-in). The following applies: for DC50: read-out: SMARC A4 Hela HiBit DC50. The protocol:
(§1) Hela cells were genetically modified via CRISPR/Cas9 to fuse HiBiT to the carboxy terminus of SMARCA2 (Promega CS302365) or SMARCA4 (Promega CS3023225). Cells were cultured in DMEM containing 10% FBS and 1% (Vol:Vol) penicillin-streptomycin. […] At the end of experiment, levels of SMARCA2 or SMARCA4 expression were assessed with Nano-Glo® HiBiT Lytic Detection Assay (Promega N3050). IC50 was obtained using the GraphPad Prism data analysis software.
In general terms: HiBiT is a short tag that completes a luciferase, so light tracks the accessible tagged protein.

For the next experiment, the target named is SMARCA2 (Homo sapiens, UniProt P51531). In words: HiBiT assay for protein degradation, Hela SMARCA2-HiBiT cells (A series). The format is cell-based. More on the design: Hela cells were genetically modified via CRISPR/Cas9 to fuse HiBiT to the carboxy terminus of SMARCA2; host or cells: HeLa (CRISPR/Cas9 HiBiT knock-in). As to conditions: for Dmax: read-out: SMARC A2 Hela HiBit Dmax (%); for DC50: read-out: SMARC A2 Hela HiBit DC50. The protocol: as §1
Chain of SMARCA2 (P51531 whole entry): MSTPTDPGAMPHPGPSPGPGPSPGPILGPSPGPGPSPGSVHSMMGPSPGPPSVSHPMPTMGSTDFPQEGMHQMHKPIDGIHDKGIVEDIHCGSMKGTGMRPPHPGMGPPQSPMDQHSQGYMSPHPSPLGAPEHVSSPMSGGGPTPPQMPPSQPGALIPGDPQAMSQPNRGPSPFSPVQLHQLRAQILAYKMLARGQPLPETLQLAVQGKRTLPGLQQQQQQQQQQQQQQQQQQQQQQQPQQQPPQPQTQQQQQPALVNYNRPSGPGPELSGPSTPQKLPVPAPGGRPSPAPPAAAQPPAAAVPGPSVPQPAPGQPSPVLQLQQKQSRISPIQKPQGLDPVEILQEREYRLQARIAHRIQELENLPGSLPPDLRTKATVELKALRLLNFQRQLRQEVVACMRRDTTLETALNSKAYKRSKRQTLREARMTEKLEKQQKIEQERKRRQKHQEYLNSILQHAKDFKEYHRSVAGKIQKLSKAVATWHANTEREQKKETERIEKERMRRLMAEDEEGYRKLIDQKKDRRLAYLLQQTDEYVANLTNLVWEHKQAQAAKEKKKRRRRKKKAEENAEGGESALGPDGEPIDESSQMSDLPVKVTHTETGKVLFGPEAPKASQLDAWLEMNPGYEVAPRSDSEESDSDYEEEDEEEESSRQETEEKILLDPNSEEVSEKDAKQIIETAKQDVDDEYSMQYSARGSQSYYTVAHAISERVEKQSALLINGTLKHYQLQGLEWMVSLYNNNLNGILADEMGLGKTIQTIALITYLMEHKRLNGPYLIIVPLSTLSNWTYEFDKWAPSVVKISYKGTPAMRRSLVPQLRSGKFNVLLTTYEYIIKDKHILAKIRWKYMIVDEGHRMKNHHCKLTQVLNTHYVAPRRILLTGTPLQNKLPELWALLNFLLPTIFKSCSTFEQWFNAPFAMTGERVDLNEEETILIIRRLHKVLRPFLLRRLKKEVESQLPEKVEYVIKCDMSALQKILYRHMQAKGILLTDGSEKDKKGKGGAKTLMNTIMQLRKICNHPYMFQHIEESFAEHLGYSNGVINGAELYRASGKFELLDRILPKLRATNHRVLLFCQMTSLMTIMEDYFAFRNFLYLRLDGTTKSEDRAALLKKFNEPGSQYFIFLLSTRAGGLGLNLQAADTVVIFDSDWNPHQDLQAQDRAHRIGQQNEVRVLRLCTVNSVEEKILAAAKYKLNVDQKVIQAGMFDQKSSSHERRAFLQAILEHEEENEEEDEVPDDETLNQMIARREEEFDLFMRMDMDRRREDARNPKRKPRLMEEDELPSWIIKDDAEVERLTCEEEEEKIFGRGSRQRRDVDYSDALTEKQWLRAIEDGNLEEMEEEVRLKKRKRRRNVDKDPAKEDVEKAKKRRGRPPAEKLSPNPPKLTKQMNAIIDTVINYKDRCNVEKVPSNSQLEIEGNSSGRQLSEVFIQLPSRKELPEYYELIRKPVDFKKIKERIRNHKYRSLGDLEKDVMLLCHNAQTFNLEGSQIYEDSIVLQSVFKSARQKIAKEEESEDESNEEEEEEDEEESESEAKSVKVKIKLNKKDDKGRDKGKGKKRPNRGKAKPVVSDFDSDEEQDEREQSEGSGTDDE

The mark [1] stands for this setting: HeLa, read-out: SMARC A4 Hela HiBit Dmax(%).
The mark [2] stands for this setting: Hela SMARCA4-HiBiT cells, 24 hours treatment.
The mark [3] stands for this setting: Hela SMARCA2-HiBiT cells, 24 hours treatment.
The mark [4] stands for this setting: Hela SMARCA4-HiBiT cells, 24 hours treatment, read-out: SMARC A4 Hela HiBit Dmax.

Chain of SMARCA4 (P51532 whole entry): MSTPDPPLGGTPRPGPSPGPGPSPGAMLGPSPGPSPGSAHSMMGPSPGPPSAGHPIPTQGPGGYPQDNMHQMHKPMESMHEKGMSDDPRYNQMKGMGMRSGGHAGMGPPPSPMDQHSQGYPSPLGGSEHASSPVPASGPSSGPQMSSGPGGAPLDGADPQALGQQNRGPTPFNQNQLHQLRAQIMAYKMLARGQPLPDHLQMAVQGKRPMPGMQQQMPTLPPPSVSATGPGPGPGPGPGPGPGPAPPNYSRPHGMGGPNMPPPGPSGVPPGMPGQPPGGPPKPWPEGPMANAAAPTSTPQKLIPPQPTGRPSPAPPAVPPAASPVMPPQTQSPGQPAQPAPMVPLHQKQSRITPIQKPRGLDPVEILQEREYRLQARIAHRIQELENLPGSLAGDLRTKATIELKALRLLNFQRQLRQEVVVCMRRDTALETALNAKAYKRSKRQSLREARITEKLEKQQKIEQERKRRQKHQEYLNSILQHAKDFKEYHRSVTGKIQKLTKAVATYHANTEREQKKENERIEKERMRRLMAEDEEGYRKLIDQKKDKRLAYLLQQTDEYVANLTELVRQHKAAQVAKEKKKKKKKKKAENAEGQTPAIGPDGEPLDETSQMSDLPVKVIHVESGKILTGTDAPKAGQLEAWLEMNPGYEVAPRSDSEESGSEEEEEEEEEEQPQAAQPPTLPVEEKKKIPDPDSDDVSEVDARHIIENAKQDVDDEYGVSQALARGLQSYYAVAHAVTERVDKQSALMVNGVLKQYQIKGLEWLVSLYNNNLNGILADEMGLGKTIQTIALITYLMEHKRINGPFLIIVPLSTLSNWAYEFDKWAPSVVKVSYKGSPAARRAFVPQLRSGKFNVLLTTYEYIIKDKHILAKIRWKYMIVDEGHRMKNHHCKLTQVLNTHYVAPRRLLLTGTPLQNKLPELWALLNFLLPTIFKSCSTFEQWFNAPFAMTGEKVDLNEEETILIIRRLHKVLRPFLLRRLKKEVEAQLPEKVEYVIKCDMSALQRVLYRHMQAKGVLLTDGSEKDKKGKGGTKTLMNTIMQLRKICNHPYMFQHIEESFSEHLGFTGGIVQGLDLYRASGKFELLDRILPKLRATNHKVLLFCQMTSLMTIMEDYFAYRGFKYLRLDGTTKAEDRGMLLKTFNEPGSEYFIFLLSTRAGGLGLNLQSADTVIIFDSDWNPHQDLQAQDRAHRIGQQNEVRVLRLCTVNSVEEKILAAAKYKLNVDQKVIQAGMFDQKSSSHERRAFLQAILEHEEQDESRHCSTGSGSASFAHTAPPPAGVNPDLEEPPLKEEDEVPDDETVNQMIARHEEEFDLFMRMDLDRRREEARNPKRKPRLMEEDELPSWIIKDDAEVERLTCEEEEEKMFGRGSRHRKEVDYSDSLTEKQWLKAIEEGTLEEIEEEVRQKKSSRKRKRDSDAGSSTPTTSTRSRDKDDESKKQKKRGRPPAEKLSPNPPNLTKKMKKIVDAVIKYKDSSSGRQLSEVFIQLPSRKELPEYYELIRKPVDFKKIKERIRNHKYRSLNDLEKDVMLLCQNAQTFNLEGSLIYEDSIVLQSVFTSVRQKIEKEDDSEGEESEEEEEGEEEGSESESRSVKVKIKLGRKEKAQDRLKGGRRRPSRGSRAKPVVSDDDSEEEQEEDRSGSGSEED

Turning to `Cc1ncsc1-c1ccc([C@H](C)NC(=O)[C@@H]2C[C@@H](O)CN2C(=O)[C@@H](NC(=O)[C@H]2CC[C@H](CN3CCC(c4ccc5c(c4)-n4c(nc(=O)c6c(Br)cccc64)C54CCCCC4)CC3)CC2)C(C)(C)C)cc1` [Compound A41, (2S,4R)-1-((S)-2-((1r,4S)-4-((4-(4′-bromo-5′-oxo-5′H-spiro[cyclohexane-1,7′-indolo[1,2-a]quinazolin]-10′-yl)piperidin-1-yl)methyl)cyclohexane-1-carboxamido)-3,3-dimethylbutanoyl)-4-hydroxy-N—((S)-1-(4-(4-methylthiazol-5-yl)phenyl)ethyl)pyrrolidine-2-carboxamide], the results for the maximal degradation (Dmax) at SMARCA4 (setting [1]) and at SMARCA2 (HeLa) were < 50% and 70 to 90%, respectively. In addition, the “SMARC A4 Hela HiBit DC50(nM)” value on SMARCA4 (setting [2]) is listed as “No Fit”. Further, on SMARCA2 (setting [3]), the DC50 is < 100 nM.
In the case of `Cc1ncsc1-c1ccc([C@H](C)NC(=O)[C@@H]2C[C@@H](O)CN2C(=O)[C@@H](n2cc(CCCCCN3CCC(c4ccc5c(c4)C4(CCCCC4)c4nc(=O)c6c(Br)cccc6n4-5)CC3)nn2)C(C)(C)C)cc1` [Compound A57, (2S,4R)-1-((S)-2-(4-(5-(4-(4′-bromo-5′-oxo-5′H-spiro[cyclohexane-1,7′-indolo[1,2-a]quinazolin]-9′-yl)piperidin-1-yl)pentyl)-1H-1,2,3-triazol-1-yl)-3,3-dimethylbutanoyl)-4-hydroxy-N—((S)-1-(4-(4-methylthiazol-5-yl)phenyl)ethyl)pyrrolidine-2-carboxamide], the DC50 at SMARCA4 (setting [2]) and at SMARCA2 (setting [3]) was < 100 nM in each case. For the same compound, the Dmax on SMARCA4 (Hela SMARCA4-HiBiT cells, 24 hours treatment, read-out: SMARC A4 Hela HiBit Dmax(%)) was > 90%; at SMARCA2 (setting [3]) it was > 90%.
Take `Cc1ncsc1-c1ccc([C@H](CN2CCC(C(F)F)CC2)NC(=O)[C@@H]2C[C@@H](O)CN2C(=O)[C@@H](n2cc([C@H]3CC[C@H](CN4CCC(c5ccc6c(c5)-n5c(nc(=O)c7c(Cl)cccc75)C65CCCCC5)CC4)CC3)nn2)C(C)(C)C)cc1` [Compound A84, (2S,4R)-1-((S)-2-(4-((1r,4S)-4-((4-(4′-chloro-5′-oxo-5′H-spiro[cyclohexane-1,7′-indolo[1,2-a]quinazolin]-10′-yl)piperidin-1-yl)methyl)cyclohexyl)-1H-1,2,3-triazol-1-yl)-3,3-dimethylbutanoyl)-N—((R)-2-(4-(difluoromethyl)piperidin-1-yl)-1-(4-(4-methylthiazol-5-yl)phenyl)ethyl)-4-hydroxypyrrolidine-2-carboxamide]: the values for the DC50 on SMARCA4 (setting [2]) and on SMARCA2 (setting [3]) were > 1000 nM and 10 to 100 nM, respectively. Moreover, the Dmax was < 50% on SMARCA4 (setting [4]) and > 90% at SMARCA2 (setting [3]).
In the same order, the values of `Cc1ncsc1-c1ccc([C@H](C)NC(=O)[C@@H]2C[C@@H](O)CN2C(=O)[C@H](C2CCN(C(=O)CCCN3CCC(c4ccc5c(c4)-n4c(nc(=O)c6c(Cl)cccc64)C54CCCCC4)CC3)CC2)n2cc(C3CC3)nn2)cc1` [Compound A106, (2S,4R)-1-((S)-2-(1-(4-(4-(4′-chloro-5′-oxo-5′H-spiro[cyclohexane-1,7′-indolo[1,2-a]quinazolin]-10′-yl)piperidin-1-yl)butanoyl)piperidin-4-yl)-2-(4-cyclopropyl-1H-1,2,3-triazol-1-yl)acetyl)-4-hydroxy-N—((S)-1-(4-(4-methylthiazol-5-yl)phenyl)ethyl)pyrrolidine-2-carboxamide] are 100 to 1000 nM, 100 to 1000 nM, < 50% and 70 to 90%.
Turning to `Cc1ncsc1-c1ccc([C@H](CN2CC(C)(F)C2)NC(=O)[C@@H]2C[C@@H](O)CN2C(=O)[C@@H](n2cc([C@H]3CC[C@H](CN4CCC(c5ccc6c(c5)-n5c(nc(=O)c7c(Cl)cccc75)C6(C)C)CC4)CC3)nn2)C(C)(C)C)cc1` [Compound A93, (2S,4R)-1-((S)-2-(4-((1r,4S)-4-((4-(4-chloro-7,7-dimethyl-5-oxo-5,7-dihydroindolo[1,2-a]quinazolin-10-yl)piperidin-1-yl)methyl)cyclohexyl)-1H-1,2,3-triazol-1-yl)-3,3-dimethylbutanoyl)-N—((R)-2-(3-fluoro-3-methylazetidin-1-yl)-1-(4-(4-methylthiazol-5-yl)phenyl)ethyl)-4-hydroxypyrrolidine-2-carboxamide], the DC50 at SMARCA4 (setting [2]) was > 1000 nM; on SMARCA2 (setting [3]) it was < 10 nM. Further, the Dmax at SMARCA4 (setting [4]) was < 50%; at SMARCA2 (setting [3]) it was > 90%.
In the same order, the values of `Cc1ncsc1-c1ccc([C@@H](NC(=O)[C@@H]2C[C@@H](O)CN2C(=O)[C@@H](n2cc(C3CC3)nn2)C(C)(C)C)C(=O)N2CCC3(CCC(N4CCC(c5ccc6c(c5)-n5c(nc(=O)c7c(Br)cccc75)C65CCCCC5)CC4)CC3)CC2)cc1` [Compound A139, (2S,4R)—N—((R)-2-(9-(4-(4′-bromo-5′-oxo-5′H-spiro[cyclohexane-1,7′-indolo[1,2-a]quinazolin]-10′-yl)piperidin-1-yl)-3-azaspiro[5.5]undecan-3-yl)-1-(4-(4-methylthiazol-5-yl)phenyl)-2-oxoethyl)-1-((S)-2-(4-cyclopropyl-1H-1,2,3-triazol-1-yl)-3,3-dimethylbutanoyl)-4-hydroxypyrrolidine-2-carboxamide] are < 10 nM, < 10 nM, 70 to 90% and > 90%.
On the same counts, the results for `Cc1nc(C)c(-c2ccc([C@H](CN3CCOCC3)NC(=O)[C@@H]3C[C@@H](O)CN3C(=O)[C@@H](n3cc([C@H]4CC[C@H](CN5CCC(c6ccc7c(c6)-n6c(nc(=O)c8c(Cl)cccc86)C76CCCCC6)CC5)CC4)nn3)C(C)(C)C)cc2)o1` [Compound A166, (2S,4R)-1-((S)-2-(4-((1r,4S)-4-((4-(4′-chloro-5′-oxo-5′H-spiro[cyclohexane-1,7′-indolo[1,2-a]quinazolin]-10′-yl)piperidin-1-yl)methyl)cyclohexyl)-1H-1,2,3-triazol-1-yl)-3,3-dimethylbutanoyl)-N—((R)-1-(4-(2,4-dimethyloxazol-5-yl)phenyl)-2-morpholinoethyl)-4-hydroxypyrrolidine-2-carboxamide] are > 1000 nM, 10 to 100 nM, < 50% and 70 to 90%.
On the same counts, the results for `Cc1ncsc1-c1ccc([C@H](CN2CCC3(COC3)C2)NC(=O)[C@@H]2C[C@@H](O)CN2C(=O)[C@@H](n2cc([C@H]3CC[C@H](CN4CCC(c5ccc6c(c5)-n5c(nc(=O)c7c(Cl)cccc75)C6(C)C)CC4)CC3)nn2)C(C)(C)C)cc1` [Compound A99, (2S,4R)-1-((S)-2-(4-((1r,4S)-4-((4-(4-chloro-7,7-dimethyl-5-oxo-5,7-dihydroindolo[1,2-a]quinazolin-10-yl)piperidin-1-yl)methyl)cyclohexyl)-1H-1,2,3-triazol-1-yl)-3,3-dimethylbutanoyl)-4-hydroxy-N—((R)-1-(4-(4-methylthiazol-5-yl)phenyl)-2-(2-oxa-6-azaspiro[3.4]octan-6-yl)ethyl)pyrrolidine-2-carboxamide] are > 1000 nM, < 10 nM, < 50% and > 90%.
As to `C[C@H](NC(=O)[C@@H]1C[C@@H](O)CN1C(=O)[C@@H](n1cc([C@H]2CC[C@H](CN3CCC(c4ccc5c(c4)-n4c(nc(=O)c6c(Br)cccc64)C54CCCCC4)CC3)CC2)nn1)C(C)(C)C)c1ccc(Cl)cc1` [Compound A68, (2S,4R)-1-((S)-2-(4-((1r,4S)-4-((4-(4′-bromo-5′-oxo-5′H-spiro[cyclohexane-1,7′-indolo[1,2-a]quinazolin]-10′-yl)piperidin-1-yl)methyl)cyclohexyl)-1H-1,2,3-triazol-1-yl)-3,3-dimethylbutanoyl)-N—((S)-1-(4-chlorophenyl)ethyl)-4-hydroxypyrrolidine-2-carboxamide], the DC50 is > 1000 nM on SMARCA4 (setting [2]) and < 100 nM on SMARCA2 (setting [3]). Moreover, the Dmax at SMARCA2 (HeLa) was > 90%.
As to `Cc1ncsc1-c1ccc([C@H](C)NC(=O)[C@@H]2C[C@@H](O)CN2C(=O)[C@@H](NC(=O)CCCN2CCC(c3ccc4c(c3)C3(CCCCC3)c3nc(=O)c5c(Cl)cccc5n3-4)CC2)C(C)(C)C)cc1` [Compound A7, (2S,4R)-1-((S)-2-(4-(4-(4′-chloro-5′-oxo-5′H-spiro[cyclohexane-1,7′-indolo[1,2-a]quinazolin]-9′-yl)piperidin-1-yl)butanamido)-3,3-dimethylbutanoyl)-4-hydroxy-N—((S)-1-(4-(4-methylthiazol-5-yl)phenyl)ethyl) pyrrolidine-2-carboxamide], the Dmax at SMARCA4 (setting [1]) was < 50%; at SMARCA2 (HeLa), 70 to 90%. Besides, the “SMARC A4 Hela HiBit DC50(nM)” value at SMARCA4 (setting [2]) was “No fit”. For the same compound, at SMARCA2 (setting [3]), the DC50 was in the range of 100 to 500 nM.
